Experimental data published in patent publication US10456414B2, “Methods for treating HCV” (priority 2011, dated 2019).
“And” between values parts separate entries of the source, which are not always exact repeats. Identical values can stand only once. Like-named read-outs stand apart in the source and are kept apart here.

How the values were obtained:
[1] = test system: genotype 1b replicon RNA; assay: Replicon RNA suppression, 6 day assay, QRT-PCR; details: for Compound concentration able to induce replicon RNA 1-1.5 log drop in a 6 day assay: genotype 1b replicon cells
[2] = test system: HCV genotype 1a replicon; assay: Antiviral combination studies with Compound 10, MacSynergy II; details: in combination with Compound 10
[3] = HCV genotype 1a replicon assay, CC50 by calcein AM (Biological Example 8); details: human, Huh-7 cells carrying an HCV genotype 1a replicon
[4] = test system: HCV genotype 1a replicon; assay: HCV genotype 1a replicon assay, EC50 (Biological Example 3); format: cell-based; details: Hepatitis C virus, 72 h, 3 days, average ± standard deviation, read-out: EC50
[5] = test system: HCV genotype 1a replicon; assay: HCV genotype 1a replicon assay, EC50 (Biological Example 8); details: Hepatitis C virus, 72 h
[6] = test system: HCV 1b replicon system (Huh-luc); assay: Antiviral combination studies with Compound 6, MacSynergy II
[7] = test system: HCV genotype 1a replicon; assay: Antiviral combination studies with Compound 4, MacSynergy II; details: for Antagonism Volume / Synergy Volume: in combination with Compound 4, mean ± standard deviation
[8] = test system: Genotype 1 b replicon cells; assay: Compound combination replicon cure assay, colony formation; details: 6 days treatment at the same concentrations, then G418 for 14 days
[9] = test system: Huh-7 cells carrying a HCV genotype 1a replicon; assay: Cytotoxicity combination studies with Compound 4, MacSynergy II; details: for Interaction (cytotoxicity): in combination with Compound 4; for Antagonism Volume (cytotoxicity) / Synergy Volume (cytotoxicity): in combination with Compound 4, mean ± standard deviation
[10] = test system: Huh-7 cells carrying an HCV genotype 1a replicon; details: with 320 nM Compound 10 and the highest concentration of the listed compound
[11] = HCV genotype 1a replicon assay, CC50 by calcein AM (Biological Example 3); format: cell-based; details: human, Huh-7 cells carrying a HCV genotype 1a replicon, genotype 1a replicon cells
Method: (§1) The CC50 assay was performed first.

[12] = test system: 1b Huh-luc replicon cells; assay: Antiviral combination studies with Compound 5, MacSynergy II; format: cell-based, HCV; details: for Antagonism Volume / Synergy Volume: in combination with Compound 5, mean ± standard deviation
Method: Combination data were analyzed based on the Bliss Independence model using MacSynergy II software. Results of the combination assays were expressed as mean synergy and antagonism volumes (nM^2) calculated at 95% confidence from two independent experiments performed in triplicate.

[13] = test system: GT3a NS5B S282T mutant chimeric replicon; assay: microbe, parasite or virus in culture; format: cell-based, HCV; details: for Fold change: GT3a, S282T EC50 versus corresponding wild type; for EC50: Hepatitis C virus, GT3A, 72 h, read-out: EC50 S282T
[14] = test system: Genotype 1a replicon, NS5A Q30E
[15] = test system: GT2b NS5B S282T mutant chimeric replicon; assay: microbe, parasite or virus in culture; format: cell-based, HCV; details: for Fold change: GT2b, S282T EC50 versus corresponding wild type; for EC50: Hepatitis C virus, GT2B, 72 h, read-out: EC50 S282T
[16] = test system: GT2a wild-type replicon; assay: microbe, parasite or virus in culture; format: cell-based, HCV; details: Hepatitis C virus, 72 h, 3 days
[17] = test system: Genotype 1a replicon, NS5A L31M
[18] = test system: GT3a wild-type chimeric replicon (3a NS5B in GT1b backbone); assay: microbe, parasite or virus in culture; format: cell-based, HCV; details: Hepatitis C virus, 72 h, read-out: EC50 WT
[19] = test system: Genotype 1a replicon, NS5A M28T
[20] = test system: Genotype 1a replicon, NS5A Y93C
[21] = test system: Genotype 1a replicon, NS5A Q30H
[22] = test system: Genotype 1a replicon, NS5A Q30R
[23] = test system: GT1b wild-type replicon; assay: microbe, parasite or virus in culture; format: cell-based, HCV; details: Hepatitis C virus, 72 h, 3 days
[24] = test system: GT2b wild-type chimeric replicon (2b NS5B in GT1b backbone); assay: microbe, parasite or virus in culture; format: cell-based, HCV; details: Hepatitis C virus, 72 h, read-out: EC50 WT
[25] = test system: GT4a NS5B S282T mutant chimeric replicon; assay: microbe, parasite or virus in culture; format: cell-based, HCV; details: for Fold change: GT4a, S282T EC50 versus corresponding wild type; for EC50: Hepatitis C virus, GT4A, 72 h, read-out: EC50 S282T
[26] = Drug-drug interactions of co-administered compounds (exposure); format: in vivo; details: co-administered with Compound 2
Method: With respect to Compounds 9 and 10, or pharmaceutically acceptable salts thereof, the composition may comprise 10 mg to 1000 mg per day (according to US 2010/0298257). With respect to Compound 11, or pharmaceutically acceptable salts thereof, the composition may comprise 1 mg to 1000 mg per day (according to US 2010/0081628).

[27] = test system: GT4a wild-type chimeric replicon (4a NS5B in GT1b backbone); assay: microbe, parasite or virus in culture; format: cell-based, HCV; details: Hepatitis C virus, 72 h, read-out: EC50 WT
[28] = test system: Huh-7 cells carrying a HCV genotype 1a replicon; assay: HCV genotype 1a replicon assay, CC50 by calcein AM (Biological Example 3); format: cell-based; details: genotype 1a replicon cells, 3 days, read-out: CC50
Method: as §1

[29] = test system: GT2a NS5B S282T mutant replicon; assay: microbe, parasite or virus in culture; format: cell-based, HCV; details: for Fold change: GT2a, S282T EC50 versus corresponding wild type; for EC50: Hepatitis C virus, GT2A, 72 h, read-out: EC50 S282T
[30] = test system: Genotype 1a replicon, NS5A Y93H
[31] = test system: GT1b NS5B S282T mutant replicon; assay: microbe, parasite or virus in culture; format: cell-based, HCV; details: for Fold change: GT1b, S282T EC50 versus corresponding wild type; for EC50: Hepatitis C virus, GT1B, 72 h, read-out: EC50 S282T
[32] = test system: panel of NS5A mutant replicons; assay: Transient replicon assay, panel of NS5A mutant replicons; format: cell-based, HCV; details: seven NS5A mutants, genotype 1a
Description: NS5A mutant replicons were created by synthesizing a sequence encoding the first 149 amino acids of NS5A containing the desired mutation flanked by a 5′ and 3′ BsrGI and EcoRI site, respectively (Genscript, Piscataway, N.J.). Synthesized fragments were then cloned by standard molecular biology techniques into a 1a Rluc replicon plasmid modified to enable cloning into unique BsrGI and EcoRI restriction sites. Mutations were confirmed by DNA sequencing.
RNA was transfected into Huh-lunet cells using the method of Lohmann et al. (Lohmann et al., Science 1999; 285 (5424):110-3) Briefly, cells were trypsinized and washed twice with PBS. A suspension of 4×10^6 cells in 400 μL of PBS were mixed with 5 μg of RNA and subjected to electroporation using settings of 960 μF and 270 V. Cells were transferred into 40 mL of pre-warmed culture medium and then seeded into 96-well or 384-well plates. Compounds were 3-fold serially diluted in 100% DMSO and added to cells to achieve a final DMSO concentration of 0.5%. Cells were treated for three days after which culture media were removed, cells were lysed, and Renilla luciferase activity was quantified using commercially available reagents (Promega) and a Victor or Envision instrument (Perkin Elmer, Waltham, Mass.).
Resistance fold changes were calculated as the ratio of mutant to wild-type replicon EC50. […]

[33] = test system: NS5B S282T mutant replicons; assay: microbe, parasite or virus in culture; format: cell-based, HCV; details: Hepatitis C virus, read-out: EC50 values for S282T across all five genotypes
[34] = single compound at the listed concentration, 6 days, relative to DMSO control (Table XIV)
[35] = in combination with Compound 6, mean ± standard deviation

With CC[C@@H]1C[C@]1(NC(=O)[C@@H]1C[C@@H](Oc2cc(-c3csc(NC(C)C)n3)nc3c(Cl)c(OCCN4CCOCC4)ccc23)CN1C(=O)[C@@H](NC(=O)O[C@@H]1C[C@@H]2C[C@@H]2C1)C(C)(C)C)C(=O)O [Compound 3] the “Replicon RNA log drop” value [1] was −0.9 log, the “Compound concentration able to induce replicon RNA 1-1.5 log drop in a 6 day assay” value ([1]; 6 days) was 26.25 nM and the “Replicon RNA log drop” value [1, 34] was −0.9 log. For the same compound, the Interaction [2] was “Additive”, the CC50 at 3 days [3] was > 22200 nM and the EC50 [4] was 49 ± 18 nM. For the same compound, the EC50 [5] was 46 nM, the Interaction ([6]; in combination with Compound 6) was “Strong Synergy” and the “Antagonism Volume” value [6, 35] was −0.1 ± 0.2 nM^2. The “Synergy Volume” value [6, 35] was 132 nM^2 and 132 ± 44 nM^2, the “Antagonism Volume” value [7] was −3 ± 2 nM^2% and the “Synergy Volume” value [7] was 26 ± 6 nM^2%. The Uncured colony number [8] was 989, the “Interaction (cytotoxicity)” value [9] was “Additivity (Additivity: ≤25 and >−25 nM^2%)” and the “Antagonism Volume (cytotoxicity)” value [9] was 0 ± 0 nM^2%. The “Synergy Volume (cytotoxicity)” value [9] was 3 ± 5 nM^2%, the “Cytotoxicity at Highest Concentration of Compound Combinations (% inhibition on cell growth)” value [10] was 2.0 ± 3.5% and the CC50 at 3 days [11] was > 22200 nM. The Interaction ([12]; in combination with Compound 5) was “Additive”, the “Antagonism Volume” value [12] was −2 ± 2 nM^2 and the “Synergy Volume” value [12] was 19 ± 13 nM^2.
For COC(=O)N[C@H](C(=O)N1CC2(CC2)C[C@H]1c1ncc(-c2ccc3c(c2)C(F)(F)c2cc(-c4ccc5nc([C@@H]6[C@H]7CC[C@H](C7)N6C(=O)[C@@H](NC(=O)OC)C(C)C)[nH]c5c4)ccc2-3)[nH]1)C(C)C [Compound 6, (1-{3-[6-(9,9-Difluoro-7-{2-[5-(2-methoxycarbonylamino-3-methyl-butyryl)-5-aza-spiro[2.4]hept-6-yl]-3H-imidazol-4-yl}-9H-fluoren-2-yl)-1H-benzoimidazol-2-yl]-2-aza-bicyclo[2.2.1]heptane-2-carbonyl}-2-methyl-propyl)-carbamic acid methyl ester], the “Replicon RNA log drop” value [1] was −1.4 log, the “Compound concentration able to induce replicon RNA 1-1.5 log drop in a 6 day assay” value ([1]; 6 days) was 0.004 nM and the “Replicon RNA log drop” value [1, 34] was −1.4 log. For the same compound, the Fold change [13] was 0.6, the EC50 [13] was 0.2 nM and the “Fold Shift in EC50 (DRM EC50/1a-H77 EC50)” value (“Fold Shift in EC50” below) [14] was 997. It also gave a Fold change [15] of 0.9, an EC50 [15] of 0.5 nM and an EC50 [16] of 5160 nM. For the same compound, the “Fold Shift in EC50” value [17] was 140, the EC50 [18] was 0.4 nM and the “Fold Shift in EC50” value [19] was 25. For the same compound, the “Fold Shift in EC50” value [20] was 327, the CC50 at 3 days [3] was > 44400 nM and the “Fold Shift in EC50” value [21] was 73. The “Fold Shift in EC50” value [22] was 170, the EC50 [4] was 0.033 ± 0.011 nM and the EC50 [5] was 0.032 nM. It also gave an EC50 [23] of 0.5 nM, an EC50 [24] of 0.5 nM and a Fold change [25] of 0.8. For the same compound, the EC50 [25] was 0.4 nM, the Interaction ([7]; in combination with Compound 4) was “Additivity (Additivity: ≤25 and >−25 nM^2%)” and the “Antagonism Volume” value [7] was −7 ± 7 nM^2%. The “Synergy Volume” value [7] was 19 ± 17 nM^2%, the “increase of exposure of Compound 6 by Compound 2” value [26] was “approximately 5 ×” and the Uncured colony number [8] was 634. The EC50 [27] was 0.5 nM, the “Interaction (cytotoxicity)” value [9] was “Additivity (Additivity: ≤25 and >−25 nM^2%)” and the “Antagonism Volume (cytotoxicity)” value [9] was 0 ± 0 nM^2%. The “Synergy Volume (cytotoxicity)” value [9] was 8 ± 4 nM^2%, the “Cytotoxicity at Highest Concentration of Compound Combinations (% inhibition on cell growth)” value [10] was 5.0 ± 5.0% and the CC50 [28] was > 44400 nM. For the same compound, the Fold change [29] was 0.5, the EC50 [29] was 2340 nM and the “Fold Shift in EC50” value [30] was 3029. The “Antagonism Volume” value [12] was 0 ± 0 nM^2, the “Synergy Volume” value [12] was 34 ± 19 nM^2 and the Fold change [31] was 0.8. For the same compound, the EC50 [31] was 0.4 nM.
For CC(C)OC(=O)[C@H](C)N[P@](=O)(OC[C@H]1O[C@@H](n2ccc(=O)[nH]c2=O)[C@](C)(F)[C@@H]1O)Oc1ccccc1 [Compound 10], the Fold change [13] was 3.5, the EC50 [13] was 117 nM and the “Fold Shift in EC50” value [14] was 1.0. It also gave a Fold change [15] of 16.2, an EC50 [15] of 216 nM and an EC50 [16] of 147 nM. For the same compound, the “Fold Shift in EC50” value [17] was 1.1, the EC50 [18] was 33.9 nM and the “Fold Shift in EC50” value [19] was 0.9. The CC50 at 3 days [3] was > 82400 nM, the “Fold Shift in EC50” value [21] was 1.0 and the “Fold Shift in EC50” value [22] was 0.8. It also gave an EC50 [5] of 39 nM, an EC50 [23] of 21.5 nM and an EC50 [24] of 13.3 nM. For the same compound, the “increase (shift) in EC50 for NS5A mutants” value [32] was “no significant shift”, the Fold change [25] was 6.1 and the EC50 [25] was 218 nM. It also gave an EC50 [27] of 35.8 nM, an EC50 [33] of 117 to 346 nM and a Fold change [29] of 2.4. The EC50 [29] was 346 nM, the “Fold Shift in EC50” value [30] was 0.7 and the Fold change [31] was 8.8. It also gave an EC50 [31] of 189 nM.
